In patent publication US9174916B2, “Compounds and uses thereof for treating inflammation and modulating immune responses” (PURAPHARM COMPANY LIMITED, priority 2009, dated 2015):

Assays:
Type in all cases: cell-based, human
TNF-α = experiment: LPS-induced TNF-α production in primary blood macrophages, ELISA of culture supernatants; details: for inhibition of LPS-induced TNF-α protein production: 140 μM B22EES1-8-3 for 24 hr, mean±S.D. of 6 experiments
Procedure: FIGS. 5A-5B show inhibition of LPS-induced TNF-α production by B22EES1-8-3 and dexamethasone. PBMac were incubated with (A) 140 μM B22EES1-8-3 or (B) 1.3 or 5.1 μM dexamethasone (Dex) for 24 hr prior to the addition of 1 ng/mL and 10 ng/mL LPS for another 24 hr. The culture supernatants were collected and assayed for TNF-α by ELISA. The results shown were the mean values±standard derivation (S.D.) of 6 independent experiments, with cells obtained from different donors. * P<0.05, compared with the corresponding control.
Human peripheral blood monocytic cells (PBMC) were isolated from the buffy coat of healthy donor blood supplied by Hong Kong Red Cross by Ficoll-Paque (Amersham Pharmacia Biotech, Piscataway, N.J.) density gradient centrifugation as described in our previous reports^14,15,34. In brief, the buffy coat was spun at 3000 rotations per min (rpm) for 15 min to separate the blood cells and the plasma. The heat inactivated serum was filtered for future use.
The adherent monocytic cells were detached and seeded onto tissue culture plates and incubated for another 7-14 days in order to differentiate the primary blood monocytic cells to primary blood macrophages (PBMac).
Culture supernatants of the LPS-treated PBMac, with or without B22EES1-8-3 pretreatment, were collected at different time intervals and stored at −70° C. The levels of the secreted TNF-α were measured by ELISA kits specific for the cytokine (R&D system, Minneapolis, Minn.).
To confirm the activities of B8-3 in suppressing TNF-α production, B8-3 was incubated with PBMac for 24 hr prior the addition of LPS at concentrations of 1 ng/mL and 10 ng/mL for 24 hr. The culture supernatants were collected and measured by ELISA for the level of secreted TNF-α.
To further compare the efficiency of B8-3 with existing drugs, dexamethasone, a potent immunosuppressive corticosteroid, was used as a prototype. PBMac were treated with dexamethasone for 24 hr prior to the addition of LPS at concentrations of 1 ng/mL and 10 ng/mL for 24 hr.

ERK1/2 = experiment: LPS-induced phosphorylation of ERK1/2 in PBMac, Western blot; details: B22EES1-8-3 140 μM for 24 h, then 10 ng/mL LPS for 15 min
Procedure: (§1) FIGS. 6A-6C show the effects of B22EES1-8-3 on LPS-induced phosphorylation (phospho-) of ERK1/2 and p38 MAP kinases, and nuclear translocation of NF-κB p65. PBMac were incubated with B22EES1-8-3 (140 μM) for 24 h prior to the addition of 10 ng/mL LPS for an additional 15 min. Cytoplasmic (A, B) and nuclear (C) proteins were harvested for Western Blotting: (A) Cytoplasmic proteins: phospho-ERK1/2 and total ERK1/2. (B) Cytoplasmic proteins: phospho-p38 and total p38 kinase. (C) Nuclear proteins: upper panel, NF-κB p65 and lamin B; lower panel, the intensity of corresponding lanes in the gel photograph of NF-κB p65 was shown. The results shown are representative of at least three independent experiments, with cells obtained from different donors. * P<0.05, compared with the corresponding control. […]
(§2) Whole cell lysate (20 μg) or nuclear protein (2 μg) were separated by sodium dodecyl sulfate polyacrylamide gel electrophoresis (SDS-PAGE) and transferred to nitrocellulose membranes for probing overnight with the respective antibodies specific for the phosphorylated or total form of ERK1/2 and p38 MAPK (Cell Signaling Technology, Beverly, Mass.), NF-κB p65 protein and lamin B (Santa Cruz Biotechnology, Santa Cruz, Calif.). […] In order to quantify the results from the Western blots, the gels were scanned and the intensity of the bands was analyzed by a computer program Quantity One from BioRad. […]

p38 MAPK = experiment: LPS-induced phosphorylation of p38 MAPK in PBMac, Western blot; details: B22EES1-8-3 140 μM for 24 h, then 10 ng/mL LPS for 15 min
Procedure: as §1, §2

NF-κB p65 = experiment: LPS-induced nuclear translocation of NF-κB p65 in PBMac, Western blot of nuclear proteins; details: B22EES1-8-3 140 μM for 24 h, then 10 ng/mL LPS for 15 min, nuclear fraction
Procedure: as §1, §2

SMILES | inhibition of LPS-induced TNF-α protein production (TNF-α; PBMac, then LPS 1 ng/mL for 24 hr) | inhibition of LPS-induced TNF-α protein production (TNF-α; PBMac, then LPS 10 ng/mL for 24 hr) | amelioration of LPS-upregulated TNF-α production (TNF-α; summary statement, FIG. 5A, LPS concentration not stated) | effect on LPS-induced phosphorylation of ERK1/2 (ERK1/2) | effect on LPS-induced phosphorylation of p38 MAPK (p38 MAPK) | effect on nuclear translocation of NF-κB p65 (NF-κB p65) | inhibition at 1.3 µM (TNF-α; Homo sapiens, Macrophage, PBMac, dexamethasone 1.3 μM for 24 hr, then LPS (1 and 10 ng/mL used) for 24 hr) | inhibition at 5.1 µM (TNF-α; Homo sapiens, Macrophage, PBMac, dexamethasone 5.1 μM for 24 hr, then LPS (1 and 10 ng/mL used) for 24 hr)
COc1ccc(/C=C/C(=O)OCC(=O)Cc2ccc(O)c(O)c2)cc1O [B8-3] | 47±19% | 58±30% | over 50% | suppressed | not p38 MAPK induced by LPS was suppressed | reduced the amount of p65NF-kB in the nuclear fraction | – | –
C[C@@H]1C[C@H]2[C@@H]3CCC4=CC(=O)C=C[C@]4(C)[C@@]3(F)[C@@H](O)C[C@]2(C)[C@@]1(O)C(=O)CO [dexamethasone, reference compound] | – | – | – | – | – | – | 32 ± 7.5% | 25 ± 6.3%
